This assay concerns P. falciparum 3D7 growth, pLDH absorbance. As to the kind of experiment: blood-stage malaria parasite growth potency – strain 3D7, dose response (AID 2305).
As usually defined, the IC50 is the concentration at which inhibition is half-maximal. A low value points to higher potency. `COc1c(C2CCN(CCN3CCC(CNC(=O)c4ccc(-c5ccc(C#N)cc5)cc4)CC3)CC2)ccc2c1CCCC2` came in with an IC50 of 460 nM.

For `O=C(C=Cc1ccc(Br)cc1)NC1CCC(CN2CCC(c3c[nH]c4ccccc34)CC2)CC1` (stereo not drawn), the IC50 is 680 nM.

Regarding `Cc1ccc(Nc2nccc(Nc3ccc4c(C)[nH]nc4c3)n2)cc1F`, the IC50 worked out at 780 nM. With `C[C@H](NC(=O)C1CCCC1)C(=O)Nc1ccc(-c2ccc(-c3nc4ccc(C(F)(F)F)cc4[nH]3)cc2)cc1` the figure was 270 nM. Molecule `CN1CCN(c2ccc(Nc3nccc(-c4c(-c5cccc(NC(=O)c6c(F)cccc6F)c5)nn5ccccc45)n3)cc2)CC1` registered an IC50 of 110 nM.

As for `NC(=O)c1sc(-n2cnc3ccccc32)cc1OCc1ccccc1[N+](=O)[O-]`, the IC50 came out at 700 nM.

Molecule `Cc1ccc(C(=O)N2CCc3cc4nccc(N5CCN6CCC[C@H]6C5)c4cc32)cc1` had an IC50 of 1100 nM. With `O=C(Nc1ccc(-c2ccc(-c3nc4ccccc4[nH]3)s2)cc1)Nc1ccsc1` the figure was 280 nM; with `Oc1ccc2ccccc2c1C=NNc1nc(Nc2ccccc2)nc(Nc2ccccc2)n1`, 670 nM; with `CN(C)CCN(Cc1ccccc1-c1ccc(CNCCc2ccccc2)cc1)C(=O)c1ccccc1`, 1700 nM. `NC1=NC2(CCCCC2)N(OCCCCCCC2CCCCC2)C(N)=N1`: the IC50 amounted to 360 nM. With `COc1ccc2nccc(NCC3(O)CCN(CC(O)c4ccc5c(c4)NC(=O)CS5)CC3)c2n1` (stereo not drawn) the figure was 830 nM; with `CN1CCN(CCCNCc2ccc(Nc3nccc(Nc4ccc(Oc5ccccc5)cc4)n3)cc2)CC1`, 630 nM; with `Cc1ccccc1OCC(O)CNC1CCC(NCC(O)COc2ccccc2C)CC1` (stereo not drawn), 1190 nM. Turning to `Cc1cc(F)ccc1Nc1nc(N(C)c2ccccc2)c2cc(OCCCN(C)C)ccc2n1`, the IC50 came out at 720 nM. Next, `CCOc1ccc(C=CC(=O)Nc2ccc3nc(N4CCN(C)CC4)cc(C)c3c2)cc1OC`: 400 nM; `COc1cc(C)ccc1S(=O)(=O)N1CCCCC(c2ccc(C(F)(F)F)cc2)=N1`: 770 nM; `Cc1ccc(NC(=O)NC2CCN(c3ccnc4ccccc34)C2)cc1` (stereo not drawn): 710 nM. Regarding `O=C(/C=C/c1ccc(Cl)c(Cl)c1)NCCCCCN1CCC(n2c(=O)[nH]c3ccccc32)CC1`, the IC50 turned out to be 870 nM. For `CCCCc1cc(NCc2ccncc2)nc(Nc2ccccc2)n1`, the IC50 was 840 nM. As for `O=C(Nc1ccc2nccc(N3CCN4CCC[C@H]4C3)c2c1)c1ccc(Cl)c(Cl)c1`, the IC50 was 340 nM. In the case of `CCOC(=O)c1c(C)n(-c2ccc(Cl)cc2)c2ccc(OC(=O)C=Cc3ccccc3)cc12`, the IC50 stood at 700 nM. Next, `Oc1cc2c(cc1CN1CCN(Cc3ccccc3F)CC1)CCC2`: 760 nM. As for `Oc1ccccc1CN1CCN(C(c2ccccc2)c2ccccc2)CC1`, the IC50 stood at 760 nM. In turn, `Cc1nn(-c2ccnc3cc(Cl)ccc23)c(C)c1C(=O)NCc1cc(Cl)cc(Cl)c1` gave an IC50 of 870 nM. `COc1ccccc1-n1c(-c2ccc3ccccc3c2)csc1=NC(=O)c1ccccc1` gave an IC50 of 200 nM.

In turn, `Cc1[nH]c(C)c(-c2ccc(CCc3ccc(C(F)(F)F)cc3)nc2)c(=O)c1Cl` displayed an IC50 of 90 nM. With `O=C(/C=C/c1ccc(Cl)cc1Cl)N1CCC(CCN2CCC(c3c[nH]c4ccccc34)CC2)CC1` the figure was 800 nM; with `CCc1ccc(Cc2cnc3nc(N)nc(N)c3c2C)cc1`, 200 nM; with `Cc1cc(N[C@@H](Cc2ccccc2)C(=O)NCc2cccc(F)c2)nc(NCCCOC(C)C)n1`, 920 nM. In the case of `O=C(NCCc1ccc(Cl)c(Cl)c1)[C@@H]1CCCN1C(=O)c1ccc(O)c(-c2ccc(Cl)c(Cl)c2)c1`, the IC50 worked out at 550 nM. Turning to `N/C(=N/C(=NCCCCCCN=C(/N=C(/N)Nc1ccc(Cl)cc1)N1CCOCC1)N1CCOCC1)Nc1ccc(Cl)cc1`, the IC50 stood at 710 nM. As to `COCCNCc1cccc(-c2ccccc2CN(C(=O)Nc2ccccc2)C2CCN(Cc3ccccc3)CC2)c1`, the IC50 came out at 910 nM. For `O=C(/C=C/c1ccc(Cl)c(Cl)c1)NCCCCCN1CCC(NC(=S)Nc2ccc(Cl)c(Cl)c2)CC1`, the IC50 came to 530 nM.

`CN(C)CC(O)C(O)(c1ccccc1)c1ccc(F)cc1` (stereo not drawn) yielded a concentration for half-maximal inhibition (IC50) of 1150 nM. For `CN1CCN(CCCN(Cc2ccc(-c3ccc(CNC4CCCC4)cc3)cc2)C(=O)CCC2CCCC2)CC1`, the half-maximal inhibitory concentration (IC50) stood at 890 nM. Next, `FC(F)(F)c1ccc2nc(-c3ccc(-c4ccc(CNCCc5ccncc5)cc4)cc3)[nH]c2c1`: 130 nM; `N=c1c(C(=O)NCc2ccccc2)cc2c(=O)n3ccccc3nc2n1CCc1ccccc1`: 530 nM; `Cc1cc(-c2cccc(CNC3CCCC3)c2)ccc1S(=O)(=O)NCCN1CCCC1`: 1240 nM. Turning to `CCN1CCc2nc3ccccc3c(C(=O)Nc3ccc(C#N)cc3)c2C1`, the half-maximal inhibitory concentration (IC50) turned out to be 780 nM. Next, `Cc1cc2ncn(-c3nccc(NCc4ccc(F)c(C)c4)n3)c2cc1C`: 990 nM. `N=c1n(Cc2ccccc2)c2ccccc2n1CC(O)c1ccc(Cl)cc1` (stereo not drawn) came in with an IC50 of 880 nM. With `CCCCC(=O)N(CCOC)Cc1ccc(-c2ccc(CNCCC)cn2)cc1`, the IC50 was 730 nM. Next, `Cc1cc(O)c(CN2CCN(Cc3cccs3)CC2)cc1C(C)C`: 720 nM. The molecule `CC[C@H]1CN2CC[C@@H]1C[C@H]2[C@H](O)c1cc(-c2cc(Cl)cc(Cl)c2)nc2ccc(OC)cc12` had an IC50 of 240 nM.

`COc1ccc(C(=O)CC(=O)c2ccc(OC)cc2OC)c(OC)c1` gave an IC50 of 300 nM. Consider `Cc1cc(NC(=O)NCCN2CCC(NC(=O)c3ccc(Cl)cc3)CC2)c2ccccc2n1`, for which the IC50 is 380 nM. Molecule `Cc1ccc(S(=O)(=O)/N=C(\N)NC(N)=O)cc1` had an IC50 of 790 nM. `c1ccc(CNCc2cccc(-c3ccc(-c4nc5ccccc5[nH]4)cc3)c2)cc1` yielded an IC50 of 820 nM. In turn, `Cc1cccc2[nH]c(-c3cccc(-c4ccc(NC(=O)C(C)CN5CCOCC5)cc4)c3)nc12` (stereo not drawn) registered an IC50 of 690 nM. Turning to `CCN1CCN(c2cc(C)c3cc(NC(=O)c4cncc(Br)c4)ccc3n2)CC1`, the IC50 is 660 nM. Take `CNC(=O)NC1CCN(Cc2c(-c3cccs3)nc3ccccc3c2C(=O)N[C@@H](C)C2CCCCC2)CC1`: the IC50 was 220 nM.

Take `CN(C)CCCNc1c2ccccc2nc2ccccc12`: the half-maximal inhibitory concentration (IC50) is 1040 nM. With `O=C(/C=C/c1ccc(Cl)c(Cl)c1)NCCCCCN1CCC(NC(=O)Nc2ccccc2F)CC1` the figure was 840 nM; with `CCCCCCCCCc1c(C)[nH]c2ccccc2c1=O`, 160 nM.

As for `COc1cc(OC)cc(-c2nn(-c3ccc([N+](=O)[O-])cc3Cl)c(=S)n2Cc2ccco2)c1`, the IC50 is 840 nM. Turning to `COc1ccc(CN2CCC(CNCC(c3ccccc3)c3ccccc3)CC2)cc1`, the IC50 came to 230 nM. The molecule `CCn1c(Sc2ccc([N+](=O)[O-])c(C#N)c2)nnc1-c1ccc(Cl)cc1` displayed a half-inhibitory concentration (IC50) of 1000 nM.

`CCN(CC)CCN(Cc1ccc(-c2ccc(C(F)(F)F)cc2)cc1)C(=O)Cn1c(CCC2CCCCC2)nc(=O)c2ccccc21` showed a 50% inhibitory concentration (IC50) of 1390 nM. As for `CCCNCc1ccc(-c2ccc(CN(C(=O)c3nn(-c4ccccc4)nc3C)C(C)CN(C)C)cc2)nc1` (stereo not drawn), the IC50 came out at 920 nM.

For the molecule `CCN(CC)c1nc(Nc2cc(C)ccc2C)nc(Nc2ccccc2O)n1`, the IC50 is 640 nM. Molecule `CCCOc1ccc(-c2nonc2NC(=O)c2cccc(OC)c2)cc1OCCC` displayed an IC50 of 1150 nM. `COc1cc(NCC(CN)Cc2ccc3c(c2)OCO3)nc2ccccc12` (stereo not drawn) showed an IC50 of 820 nM.

Values taken from PubChem BioAssay AID2305 (GlaxoSmithKline (GSK), 2010).
